Where a name gives a salt, the structure may show the parent alone. Read-outs that look alike come from different tables or passages of the source. Values belong to the compound of their own block, whether it stands above or below them. Residues, ends and D or L forms follow the SMILES beside them.
How the values were obtained:
[1] = amino group (primary in aspartame, secondary in neotame); cited from earlier work
[2] = Dissolution in water (time to complete dissolution); type: physicochemical
Description: N-[N-(3,3-dimethylbutyl)-L-α-aspartyl]-L-phenylalanine 1-methyl ester (25.0 g) was slurried in 150 ml of water. To the stirred slurry was slowly added concentrated hydrochloric acid (5.5 ml, 0.0661 mol). After approximately 10 minutes all the solid had dissolved. The clear solution was then freeze dried. […] Yield: 27.34 g white solid (99.7%). The hydrochloride salt (1 g) dissolved in water (100 ml) in 70 seconds. 1H NMR (CD3 CN) δ 0.89 (s, 9H), 1.64 (m, 2H), 3.01 (m, 6H), 3.68 (s, 3H), 4.16 (t, 1H), 4.67 (m, 1H), 7.26 (m, 5H), 8.27 (d, 1H). Anal. Calcd for C20 H31 ClN2 O5.H2 O: C, 55.48; H, 7.69; N, 6.47; Cl, 8.19. Found: C, 55.95; H, 7.59; N, 6.55; Cl, 8.35.
N-[N-(3,3-dimethylbutyl)-L-α-aspartyl]-L-phenylalanine 1-methyl ester (10.0 g) was slurried in 100 ml of water. An equimolar amount of 85% phosphoric acid solution was added. After all the solid dissolved, the solution was freeze dried. […] Yield 12.33 g white solid (98.0%). The phosphate salt (0.1 g) dissolved in water (100 ml) in less than 30 seconds (visual observation) and about 90 seconds by spectrophotometric analysis. 1H NMR (CD3 CN) δ 0.89 (s, 9H), 1.55 (m, 2H), 2.84 (m, 5H), 3.19 (m, 1H), 3.67 (s, 3H), 4.06 (t, 1H), 4.70 (m, 1H), 7.27 (m, 5H), 8.03 (d, 1H). Anal. Calcd for C20 H33 N2 O9 P.H2 O: C, 48.58; H, 7.15; N, 5.67; P, 6.26. Found: C, 48.15: H, 7.08; N, 5.60; P, 6.57.
N-[N-(3,3-dimethylbutyl)-L-α-aspartyl]-L-phenylalanine 1-methyl ester (25.0 g) was slurried in 100 ml of water and concentrated sulfuric acid (3.67 ml) was added slowly. After several minutes of stirring some material remained undissolved. Therefore, 75 ml of acetone was added. The resulting clear solution was stirred for 30 minutes, then the acetone was removed under reduced pressure on a rotary evaporator. The contents of the flask remained a clear solution. […] Yield: 30.04 g (95%). The sulfate salt (0.1 g) dissolved in water (100 ml) in less than 20 seconds (visual observation). 1H NMR (CD3 CN) δ 0.89 (s,9H), 1.57 (m, 2H), 2.91 (m, 5H), 3.20 (m, 1H), 3.68 (s, 3H), 4.15 (t, 1H), 4.72 (m, 1H), 7.27 (m, 5H), 7.68 (d, 1H). Anal. Calcd for C20 H32 N2 O9 S.H2 O: C, 48.56; H, 6.94; N, 5.66; S, 6.48. Found C, 48.93; H, 7.02; N, 5.78; S, 6.50.
N-[N-(3,3-dimethylbutyl)-L-α-aspartyl]-L-phenylalanine 1-methyl ester (5.00 g) was dissolved in 75 ml of acetone. Citric acid (2.53 g) was dissolved in 50 ml of water, and the acetone solution was added. This formed a clear, colorless solution that was stirred for 1 hour. The acetone was evaporated under reduced pressure. The resulting slurry was freeze dried to obtain 7.5 g of a white solid. The citrate salt (0.1 g) dissolved in water (100 ml) in 90 seconds (visual observation). δ (CD3 CN) 0.89 (s, 9H), 1.53 (m, 2H), 2.83 (m, 10H), 3.20 (m, 1H), 3.67 (s, 3H), 4.04 (t, 1H), 4.21 (m, 1H), 7.27 (m, 5H), 7.79 (d, 1H). Anal. Calcd for C26 H38 N2 O12.H2 O: C, 53.05; H, 6.86; N, 4.76. Found: C, 53.10; H, 6.88; N, 4.41.
N-[N-(3,3-dimethylbutyl) -L-α-aspartyl]-L-phenylalanine 1-methyl ester (0.05-0.1 g) was dissolved in water (100 mL). The compound completely dissolved in 5-7 minutes (visual observation). The dissolution of 1.0 g of N-[N-(3,3-dimethylbutyl)-L-α-aspartyl]-L-phenylalanine 1-methyl ester in 100 mL of water required approximately 45 minutes.

[3] = Aqueous solubility compared to the starting material / water solubility; type: physicochemical; settings: starting material = neotame
[4] = compared with aspartame; cited from earlier work
[5] = cited from earlier work
[6] = compared with aspartame, under some pH conditions; cited from earlier work
[7] = on a weight basis, cited from earlier work
[8] = 0.1 g in water (100 ml), visual observation

Compound: COC(=O)[C@H](Cc1ccccc1)NC(=O)[C@@H](N)CC(=O)O [aspartame] (H-Asp-Phe-OMe)
pKa [1]: 7.7

Compound: COC(=O)[C@H](Cc1ccccc1)NC(=O)[C@H](CC(=O)O)NCCC(C)(C)C [citrate salt, Citrate Salt of N-[N-(3,3-dimethylbutyl)-L-α-aspartyl]-L-phenylalanine 1-methyl Ester]
dissolution time in water (visual observation) [2, 8]: 90 s

Compound: COC(=O)[C@H](Cc1ccccc1)NC(=O)[C@H](CC(=O)O)NCCC(C)(C)C [hydrochloride salt, Hydrochloride Salt of N-[N-(3,3-dimethylbutyl)-L-α-aspartyl]-L-phenylalanine 1-methyl Ester]
dissolution time in water ([2]; 1 g in water (100 ml)): 70 s
aqueous solubility compared to the starting material [3]: greatly increased aqueous solubility compared to the starting material

Compound: COC(=O)[C@H](Cc1ccccc1)NC(=O)[C@H](CC(=O)O)NCCC(C)(C)C [N-[N-(3,3-dimethylbutyl)-L-α-aspartyl]-L-phenylalanine 1-methyl ester]
dissolution time in water, completely dissolved (visual observation) ([2]; 0.05-0.1 g in water (100 mL), visual observation): 5 to 7 min
dissolution time in water ([2]; 1.0 g in 100 mL of water): approximately 45 minutes
solubility in organic solvents [4]: much higher solubility in organic solvents than aspartame
solubility in water ([5]; compared with aspartame): much lower solubility in water
solubility in water ([5]; in words, no comparator): sparingly soluble in water
stability [6]: higher stability than aspartame under some pH conditions
pKa [1]: 8.1
sweetening potency relative to aspartame ([7]; times that of aspartame): at least 50 times
sweetening potency relative to sucrose ([7]; times that of sucrose): about 10,000 times

Second part, led by results:

dissolution time in water (visual observation) [2, 8]: less than 20 seconds
Compound: COC(=O)[C@H](Cc1ccccc1)NC(=O)[C@H](CC(=O)O)NCCC(C)(C)C [sulfate salt, Sulfate Salt of N-[N-(3,3-dimethylbutyl)-L-α-aspartyl]-L-phenylalanine 1-methyl Ester]
aqueous solubility compared to the starting material [3]: greater aqueous solubility compared to the starting material

dissolution time in water by spectrophotometric analysis ([2]; 0.1 g in water (100 ml), spectrophotometric analysis): about 90 seconds
dissolution time in water (visual observation) [2, 8]: less than 30 seconds
Compound: COC(=O)[C@H](Cc1ccccc1)NC(=O)[C@H](CC(=O)O)NCCC(C)(C)C [phosphate salt, Phosphate Salt of N-[N-(3,3-dimethylbutyl)-L-α-aspartyl]-L-phenylalanine 1-methyl Ester]
aqueous solubility compared to the starting material [3]: greatly increased aqueous solubility compared to the starting material

From patent publication US6180156A, “Acid salts of N-[N-(3,3-dimethylbutyl)-L-α-aspartyl]-L-phenylalanine 1-methyl ester” (The NutraSweet Company, priority 1998, dated 2001)
